# Values joined by “and” are separate entries in the source; they are usually repeats but may differ in a detail not shown here. Equal values may be shown once.
# Legend:
# healthy adults = assay: Phase 1 pharmacodynamics by echocardiography (LVEF), SAD and MAD cohorts; format: in vivo, human
# Experimental: Echocardiography. For PD assessments of LVEF, echocardiograms for the SAD and MAD cohorts were interpreted by the echocardiography core laboratory and used for all data analysis and dose level review decisions while immediate local interpretation of the echocardiograms was performed for safety monitoring. […] Echocardiograms on day 3 (48 h after dosing) were obtained only if the 24 h LVEF had not returned to near or above baseline, as determined by the investigator. In the MAD cohorts, echocardiograms were obtained on day −1, pre-dose on day 1, and at 1.5 h post dose on days 2, 4, and 9, and at 1.5, 24, and 72 h post dose on day 14 (for the 5-mg and 10-mg cohorts) or on day 17 (for the 7.5-mg cohort). Echocardiograms were obtained 3 days after the last dose (on day 17 or 20) only if the participant's prior LVEF was not near or above baseline, as determined by the investigator.
# All participants who received ≥1 dose of study drug and had ≥1 pre-dose and ≥1 post-dose echocardiographic measurement were included in the PD analysis set. […] Descriptive statistics of the echocardiographic parameters were generated using SAS® Version 9.3 or higher.
# Dose-response analysis was performed using analysis of covariance (ANCOVA) to identify the least-squares mean difference (aficamten minus placebo). To analyze the impact of drug dose on echocardiographic parameters in the SAD and MAD cohorts, an inferential analysis was conducted on the PD analysis set using linear mixed models for repeated-measures analysis of covariance (ANCOVA). The ANCOVA used baseline value as a covariate, included treatment, time-point, and time-point-by-treatment interaction as fixed effects, and change from baseline as the dependent variable. The unstructured variance-covariance structure was used, and the model accounted for the time-point repeated measures. The ANCOVA analysis was conducted separately for each study part and for each PD parameter. The least-squares means, the difference in least squares means (active minus placebo), and the associated 2-sided 95% CIs were presented for each comparison.
# Analyses of concentration ‘bin’ and exposure-response were also performed using ANCOVA. SAS® PROC MIXED was used for all comparative analyses. […] A concentration bin ANCOVA was conducted using linear mixed models for repeated-measures analyses with concentration bin group as a fixed effect, baseline PD parameters as a covariate, change from baseline as the dependent variable, and a random intercept to adjust for the repeated measures. The unstructured variance-covariance structure was used. […] The ANCOVA compared the change in PD parameters between each bin versus the pooled placebo group. The least-squares means, the difference in least squares means (bin group minus placebo), and the associated 2-sided 95% CIs were presented for each comparison. The ANCOVA analysis was conducted separately for each study part. For all time-points at which both PK data and PD measures were available, the time-points were pooled for the analysis. […] From least to greatest, the data were then divided into 5 groups of observations (‘bins’), each consisting of 20% of the data points. Each bin was treated as a separate group.
# The above analysis was then repeated using concentration as a continuous variable to estimate the exposure-response trend. Both a random intercept effect and a random concentration effect were added to the ANCOVA. The estimate of the concentration slope, with corresponding 2-sided 95% CIs, and the ANCOVA analyses were presented for each study part.
# For all time-points at which both PK data and PD measures were available, the time points were pooled for the analysis. A nominal significance level of 5% was used for statistical comparisons, without adjustment for multiplicity.
# [1] = tested on: patients with symptomatic obstructive HCM (oHCM); assay: Phase 2 trial in oHCM, Cohorts 1 and 2: echocardiography, NYHA class, biomarkers; format: in vivo, human; conditions: for Average ejection fraction: at 10 weeks
# Description: Cohort 3 included patients receiving disopyramide.
# Since patient characteristics vary substantially in this disease, individualized dose titration to a pharmacodynamics (PD) response (reduction of the LVOT-G to <30 mmHg with preservation of LVEF>50%) was employed to maximize efficacy and safety.
# Body weight was ≥45 kg at screening; 4. […] Adequate acoustic windows for echocardiography; 6. Had LVOT-G during screening as follows for Cohorts 1 and 2: (a) resting gradient≥50 mmHg; or (b) resting gradient≥30 mmHg and <50 mmHg with post-Valsalva LVOT-G≥50 mmHg; or as follows for Cohort 3: persistent resting LVOT obstruction (≥30 mmHg) and provoked LVOT obstruction (≥50 mmHg); 7. Left ventricular ejection fraction (LVEF)≥60% at screening; 8. […] Able to complete all screening procedures; and 13. Taking stable doses of disopyramide for >4 weeks prior to screening (Cohort 3 only).
# Aortic stenosis or fixed subaortic obstruction; 2. […] Has been treated with septal reduction therapy (surgical myectomy or percutaneous alcohol septal ablation) or has plans for either treatment during the study period; 6. […] Hemoglobin<10.0 g/dL at screening; 18. […] Has received prior treatment with CK-3773274 or is currently receiving mavacamten; 21.
# Patients up-titrated to Dose 2 if either of the following conditions were met on echocardiography: (1) resting LVOT-G≥30 mmHg and the biplane LVEF≥50%; or (2) resting LVOT-G<30 mmHg, post-Valsalva LVOT-G≥50 mmHg, and the biplane LVEF≥50%. Otherwise, the patient remains on Dose 1. If LVEF is <50% at Week 2, the patient was down-titrated to placebo.
# Patients were escalated to the next higher dose if either of the following conditions were met on echocardiography: (1) resting LVOT-G≥30 mmHg and the biplane LVEF≥50%; or (2) resting LVOT-G<30 mmHg, post-Valsalva LVOT-G≥50 mmHg, and the biplane LVEF≥50%. Otherwise, the patient remained on the same dose. If LVEF was <50% at Week 4, the patient was returned to a prior dose level or to placebo if the patient was on Dose 1.
# Echocardiograms obtained every 2 weeks and 2 weeks after the last dose were analyzed for several key structural and physiologic metrics and N-terminal prohormone of brain natriuretic peptide (NT-proBNP).
# Initial results from the clinical study included data from two sequentially conducted cohorts, Cohort 1 (n=21) and Cohort 2 (n=20) which randomized treatment of patients 2:1 to CK-274 or placebo. […] Overall, treatment duration for each patient in the study was 10 weeks with an echocardiogram conducted 2 weeks after the last dose.
# [2] = SAD 50 mg (n = 11), […] post dose
smiles,measurement,setting,value
"CCc1nc(-c2ccc3c(c2)CC[C@H]3NC(=O)c2cnn(C)c2)no1 [aficamten, (R)—N-(5-(5-ethyl-1,2,4-oxadiazol-3-yl)-2,3-dihydro-1H-inden-1-yl)-1-methyl-1H-pyrazole-4-carboxamide]",Participants with absolute reductions in LVEF of ≥10% from baseline,healthy adults; 10-mg MAD cohort,33%
same,Participants with absolute reduction in LVEF ≥5% from baseline,"healthy adults; MAD 7.5 mg once daily, 1 of 6",17%
same,Participants with absolute reduction in LVEF ≥5% from baseline,"healthy adults; MAD 10 mg once daily, 2 of 6",33%
same,Number of participants with reduction in LVEF ≥10%,healthy adults; MAD 10-mg cohort,2
same,Plasma aficamten concentrations with minimal suppression of LVEF in most participants,healthy adults; MAD cohorts,≤ 180 ng/mL
same,"A, mean change from baseline",healthy adults; [2],2.5 cm/s
same,"E, mean change from baseline",healthy adults; [2],-2.7 cm/s
same,"LV ET, mean change from baseline",healthy adults; [2],1.9 ms
same,Participants with absolute reduction in LVEF ≥5% from baseline,"healthy adults; SAD 1-, 10-, or 25-mg cohorts",no participants
same,Participants with absolute reduction in LVEF ≥5% from baseline,"healthy adults; SAD 3-mg cohort, 1 of 6",17%
same,Participants with absolute reduction in LVEF ≥10%,"healthy adults; SAD 40-mg cohort, 1 of 6",17%
same,Participants with absolute reduction in LVEF ≥5% from baseline,"healthy adults; SAD 40-mg cohort, 2 of 6",33%
same,Participants with reduction in LVEF to <50%,"healthy adults; SAD 50-mg cohort, 2 of 11",18%
same,Participants with absolute reduction in LVEF ≥5% from baseline,"healthy adults; SAD 50-mg cohort, 7 of 11",64%
same,LVEF of the individual participants with LVEF <50%,"healthy adults; SAD 50-mg cohort, core laboratory assessment",48.2% and 45.5%
same,Participants with absolute reduction in LVEF ≥5% from baseline,"healthy adults; SAD 75-mg cohort, 1 of 1",100%
same,Participants with reduction in LVEF to <50%,"healthy adults; SAD 75-mg cohort, 1 of 1",100%
same,Participants with absolute reduction in LVEF ≥10%,"healthy adults; SAD 75-mg cohort, 1 participant",100%
same,Reduction in LVEF to <50%,"healthy adults; any MAD cohort, core laboratory assessment",not observed
same,Time within which decreases in LVEF to <50% were reversible,healthy adults; following single doses,≤ 6 h
same,"Decrease in mean LVEF from baseline, least-squares mean difference vs placebo","healthy adults; single 50-mg dose, […] post dose, p=0.0001",5.5%
same,LVEF reached by 1 participant,"healthy adults; single dose of 75 mg, approximately […] after dosing",34.1%
same,Patients with complete hemodynamic response / target goal (resting gradient <30 mmHg and post-Valsalva gradient <50 mmHg),"[1]; Cohort 1 (5, 10, 15 mg), Week 10, 11 out of 14",79%
same,Average ejection fraction,"[1]; Cohort 1 (n=14), baseline 72.8 (73±6)",67±9%
same,Patients with complete hemodynamic response / target goal (resting gradient <30 mmHg and post-Valsalva gradient <50 mmHg),"[1]; Cohort 2 (10, 20, 30 mg), Week 10, 13 out of 14",93%
same,Average ejection fraction,"[1]; Cohort 2 (n=14), baseline 75.4 (75±6)",64±8%
same,Patients converted from NYHA class III to class II or I,[1]; Cohorts 1 and 2,7 patients
same,Time of occurrence of reductions in LVOT-G after initiating treatment,[1]; Cohorts 1 and 2,within two weeks
same,Time of peak reduction in LVOT-G,[1]; Cohorts 1 and 2,within two to six weeks of the end of dose titration
same,Patients who improved from NYHA class III to I,[1]; pooled aficamten Cohorts 1 and 2,one
same,LVMI mean difference vs placebo,"[1]; week 10, p=0.063",8.1 g/m^2

# Source: US20250177357A1, “METHODS FOR TREATING HYPERTROPHIC CARDIOMYOPATHY” (priority 2021, published 2025)
